Read-outs that look alike come from different tables or passages of the source.
What was measured:
[1] = system: P. falciparum 3D7, HB3, Dd2, W2, K1, FCR3; experiment: Asexual EC50 image assay, six strains, Ayong; type: cell-based; settings: Plasmodium falciparum
[2] = system: P. falciparum NF54Pfs16 gametocytes stage IV-V; settings: ref [62]; read-out: gametocyte late stage (IV-V) luciferase EC50; cited from earlier work
[3] = system: P. falciparum NF54 GFP-Pfs16 gametocytes stage IV-V; settings: ref [64]; read-out: gametocyte late stage (IV-V) GFP-MTR EC50; cited from earlier work
[4] = system: P. falciparum HB3; experiment: Stage-specificity / mitochondrial integrity image assay Ayong; type: cell-based; settings: 10µM
[5] = system: P. falciparum 3D7 or K1; experiment: Asexual Blood Stage Imaging Assay (DAPI) V. Avery; type: cell-based; settings: Plasmodium falciparum
[6] = system: P. falciparum NF54 GFP-Pfs16 gametocytes stage I-III; settings: ref [64]; read-out: gametocyte early stage (I-III) GFP-MTR EC50; cited from earlier work
[7] = system: P. falciparum NF54Pfs16 gametocytes stage I-III; settings: ref [61]; read-out: gametocyte early stage (I-III) luciferase EC50; cited from earlier work
[8] = system: P. falciparum FCR3; experiment: FCR3 SYBR Green I assay Horii; type: cell-based; settings: Plasmodium falciparum, FCR3, 72 h; read-out: P. falciparum FCR3 asexual blood stage IC50 Horii
Method: Column T: Horii group (data presented first in this paper). IC50 against asexual blood stage P. falciparum FCR3. Methods: For measurement of anti-Plasmodium activities, P. falciparum FCR3 strain was cultured in the RPMI 1640 medium supplemented with 10% human type A serum from in-house volunteers at 37°C, 5% O2 and 5% CO2 (0.5% parasitemia and 2% hematocrit) for 72 h in the presence of the compounds (DMSO final concentration, 0.25%). The growth inhibition of P. falciparum was determined using a SYBR Green I assay. Lysis buffer (20 mM Tris (pH 7.5), 5 mM EDTA, 0.008% (w/v) saponin and 0.08% (v/v) Triton X-100) containing SYBR Green I was added to each well and incubated at room temperature and dark condition for 1-5 hours. After the incubation, amounts of parasite DNA were measured as fluorescence at 485 nm of excitation and 530 nm of emission. An unpublished antimalarial compound was used as positive control in the assay.

[9] = system: P. falciparum 3D7 trophozoites; experiment: Metabolomic fingerprint profiling LC-MS; type: cell-based, Plasmodium falciparum; parameters: UDP-D-glucose / ADP-D-glucose: unit not given here
[10] = system: P. falciparum; experiment: EC50 listed in S2 Table Metabolomics (used to set the concentration tested); type: cell-based; settings: Plasmodium falciparum; EC50 used for Factor_XEC50 in metabolomics; read-out: EC50_nM
[11] = system: Saccharomyces cerevisiae strain WC081; experiment: Yeast disc diffusion in combination with artemisinin; type: cell-based; settings: 10 µL of 1 mM on disc, 0.2 µM artemisinin, read-out: larger zone size with artemisinin (SCG+artemisinin minus SCG)
Excerpt: Yeast screening for enhanced drug effects in combination with artemisinin, Jensen group (data presented first in this paper). […] Yeast (S. cerevisiae) was used as a proxy for P. falciparum, because the killing of S. cerevisiae and P. falciparum appear to have similarities. Saccharomyces cerevisiae strain WC081 (Mat a, leu2∆0, lys2∆0, ura3∆0, his3∆1, pdr1∆::HIS3, pdr3∆::kanMX4) was utilized and was originally derived from strain BY4742. Regulators of Multi-drug resistance transporters have been deleted from this strain to enhance the toxicity of compounds. Assay utilized the disc diffusion method with the observance of a clear zone indicating inhibition of growth. Synthetic complete medium containing 3% glycerol as a carbon source (SCG) was used in each assay. 10 µL of each compound at 1 mM was added to a paper disc which was placed on SCG and SCG^+artemisinin (0.2 µM) plates seeded with 10e6 yeast cells. Plates were incubated at 30 °C for 5 days and clear zones were measured. Compounds that produced a larger clear zone in the presence of artemisinin were considered to have an additive interaction with artemisinin. Results are reported as diameter of clear zone on SCG^+artemisinin plates - diameter of clear zone on SCG plates without artemisinin.

[12] = system: Atg8-Atg3; parameters: method as in ref [38] (a number printed in a supplementary file, which may have a reference list of its own: not looked up in the article's list); settings: ref [38]; cited from earlier work
[13] = metabolite level change after treatment

C[C@@H]1CC[C@H]2[C@@H](C)C(=O)O[C@@H]3O[C@@]4(C)CC[C@@H]1[C@]32OO4 [Artemisinin, reference compound]
EC50 ([1]; read-out: P. falciparum 3D7 asexual blood stage EC50 (Image) Ayong): 11.7 ± 1.4 nM
EC50 ([1]; read-out: P. falciparum Dd2 asexual blood stage EC50 (Image) Ayong): 5.3 ± 1.2 nM
EC50 ([1]; read-out: P. falciparum FCR3 asexual blood stage EC50 (Image) Ayong): 5 ± 0.4 nM
EC50 ([1]; read-out: P. falciparum HB3 asexual blood stage EC50 (Image) Ayong): 8.6 ± 1.2 nM
EC50 ([1]; read-out: P. falciparum K1 asexual blood stage EC50 (Image) Ayong): 3.5 ± 0.4 nM
EC50 ([1]; read-out: P. falciparum W2 asexual blood stage EC50 (Image) Ayong): 5.7 ± 0.5 nM
EC50 [2]: 26 nM
EC50 [3]: 5 nM
Effects on asexual life cycle progression (treatment at ER, LR, T, S; merozoites; mitochondrial integrity) [4]: LR-X-S-X-o-o
EC50 ([5]; read-out: P. falciparum 3D7 asexual blood stage EC50 (Image) V. Avery): 1 nM
EC50 ([5]; read-out: P. falciparum K1 asexual blood stage EC50 (Image) V. Avery): 1 nM
EC50 [6]: 1 nM
EC50 [7]: 13 nM
IC50 [8]: 47 nM

CSc1ccccc1C(=O)Nc1nc(-c2ccccn2)cs1 [MMV001246]
Acetyllysine ([9]; S2 Table Metabolomics, metabolite Acetyllysine): 0.4532
N-acetyl-L-ornithine ([9]; S2 Table Metabolomics, metabolite N-acetyl-L-ornithine): 0.4087
N-carbamoyl-L-aspartate ([9]; S2 Table Metabolomics, metabolite N-carbamoyl-L-aspartate): 0.8167
NADPH ([9]; S2 Table Metabolomics, metabolite NADPH): -0.6152
dAMP ([9]; S2 Table Metabolomics, metabolite dAMP): 0.5623
dCMP ([9]; S2 Table Metabolomics, metabolite dCMP): 1.316
dTDP ([9]; S2 Table Metabolomics, metabolite dTDP): 1.003
dTMP ([9]; S2 Table Metabolomics, metabolite dTMP): 1.155
dTTP ([9]; S2 Table Metabolomics, metabolite dTTP): 0.605
dihydroorotate ([9]; S2 Table Metabolomics, metabolite dihydroorotate): 0.8484
orotate ([9]; S2 Table Metabolomics, metabolite orotate): -0.04882
DLH ([9]; S2 Table Metabolomics, peptide DLH): -0.1638
DLS/SDL/SID ([9]; S2 Table Metabolomics, peptide DLS/SDL/SID): -0.1191
PD ([9]; S2 Table Metabolomics, peptide PD): 1.085
PEE ([9]; S2 Table Metabolomics, peptide PEE): 0.2734
PVNF ([9]; S2 Table Metabolomics, peptide PVNF): -0.2587
3-phosphoglycerate ([9]; metabolite 3-phosphoglycerate, S2 Table Metabolomics): -0.3067
ADP-D-glucose ([9]; metabolite ADP-D-glucose, S2 Table Metabolomics): 0.2637
ATP ([9]; metabolite ATP, S2 Table Metabolomics): -0.316
CDP ([9]; metabolite CDP, S2 Table Metabolomics, change in metabolite level after compound treatment): 1.161
D-sedoheptulose-1/7-phosphate ([9]; metabolite D-sedoheptulose-1/7-phosphate, S2 Table Metabolomics, change in metabolite level after compound treatment): 0.9582
FAD ([9]; metabolite FAD, S2 Table Metabolomics): -0.06449
GMP ([9]; metabolite GMP, S2 Table Metabolomics, change in metabolite level after compound treatment): -0.2602
NAD+ ([9]; metabolite NAD+, S2 Table Metabolomics): 0.05063
NADP+ ([9]; metabolite NADP+, S2 Table Metabolomics): 0.1259
Octoluse Bisphosphate ([9]; metabolite Octoluse Bisphosphate, S2 Table Metabolomics, change in metabolite level after compound treatment): -0.02993
Pyroglutamic acid ([9]; metabolite Pyroglutamic acid, S2 Table Metabolomics): -0.6363
UDP-D-glucose ([9]; metabolite UDP-D-glucose, S2 Table Metabolomics): 0.1597
UDP-D-glucuronate ([9]; metabolite UDP-D-glucuronate, S2 Table Metabolomics): 0.09079
UDP-N-acetyl-glucosamine ([9]; metabolite UDP-N-acetyl-glucosamine, S2 Table Metabolomics): 0.2113
UDP ([9]; metabolite UDP, S2 Table Metabolomics, change in metabolite level after compound treatment): 1.27
UMP ([9]; metabolite UMP, S2 Table Metabolomics, change in metabolite level after compound treatment): -0.2249
UTP ([9]; metabolite UTP, S2 Table Metabolomics, change in metabolite level after compound treatment): 0.2071
a-ketoglutarate ([9]; metabolite a-ketoglutarate, S2 Table Metabolomics): -0.3343
citrate/isocitrate ([9]; metabolite citrate/isocitrate, S2 Table Metabolomics, change in metabolite level after compound treatment): 0.6139
cytidine ([9]; metabolite cytidine, S2 Table Metabolomics): -0.1132
dATP ([9]; metabolite dATP, S2 Table Metabolomics): -0.2342
dGMP/AMP ([9]; metabolite dGMP/AMP, S2 Table Metabolomics, change in metabolite level after compound treatment): 0.5523
fumarate ([9]; metabolite fumarate, S2 Table Metabolomics, change in metabolite level after compound treatment): 0.07419
glucose-1/6-phosphate ([9]; metabolite glucose-1/6-phosphate, S2 Table Metabolomics, change in metabolite level after compound treatment): 0.3611
glycerate ([9]; metabolite glycerate, S2 Table Metabolomics, change in metabolite level after compound treatment): -0.4138
guanine ([9]; metabolite guanine, S2 Table Metabolomics, change in metabolite level after compound treatment): 0.2842
guanosine ([9]; metabolite guanosine, S2 Table Metabolomics, change in metabolite level after compound treatment): 0.03562
hypoxanthine ([9]; metabolite hypoxanthine, S2 Table Metabolomics): -0.2148
indole ([9]; metabolite indole, S2 Table Metabolomics): -0.09781
inosine ([9]; metabolite inosine, S2 Table Metabolomics, change in metabolite level after compound treatment): -0.005486
2_3-Diphosphoglyceric acid [9, 13]: 0.509
4-phosphopantothenate [9, 13]: 0.08862
6-phospho-D-gluconate [9, 13]: 0.2643
FMN [9, 13]: 0.1616
IMP [9, 13]: 0.3566
Pyrophosphate [9, 13]: 0.4487
Sedoheptoluse bisphosphate [9, 13]: -0.09548
cyclic-AMP [9, 13]: -0.2042
glutathione disulfide [9, 13]: 0.1188
lactate [9, 13]: -0.259
myo-inositol [9, 13]: -0.2589
nicotinate ([9]; metabolite nicotinate, S2 Table Metabolomics): -0.09283
ornithine ([9]; metabolite ornithine, S2 Table Metabolomics): 0.2998
phosphoenolpyruvate ([9]; metabolite phosphoenolpyruvate, S2 Table Metabolomics): -0.3081
pyruvate ([9]; metabolite pyruvate, S2 Table Metabolomics, change in metabolite level after compound treatment): -0.1972
ribose-phosphate ([9]; metabolite ribose-phosphate, S2 Table Metabolomics): -0.4595
sarcosine/alanine ([9]; metabolite sarcosine/alanine, S2 Table Metabolomics, change in metabolite level after compound treatment): 0.1583
sn-glycerol-3-phosphate ([9]; metabolite sn-glycerol-3-phosphate, S2 Table Metabolomics): -0.08199
succinate/methylmalonic acid ([9]; metabolite succinate/methylmalonic acid, S2 Table Metabolomics, change in metabolite level after compound treatment): 0.009107
uridine ([9]; metabolite uridine, S2 Table Metabolomics, change in metabolite level after compound treatment): 0.08525
xanthosine ([9]; metabolite xanthosine, S2 Table Metabolomics, change in metabolite level after compound treatment): -0.2265
EC50 [10]: 206 nM
zone of inhibition at 1000 µM [11]: 3 mm
PPI inhibitors of Atg8-Atg3 interaction [12]: PPI inhibitors

From PMC4965013, “Open Source Drug Discovery with the Malaria Box Compound Collection for Neglected Diseases and Beyond” (PLoS Pathogens, 2016)
